Converted amounts (≈) assume the structure as drawn. Where two headings read alike, the source gives them in different places.
Experiments:
[1] = Precipitation on further dilution of the organic-aqueous solutions with sterile intravenous solutions; format: physicochemical; details: solutions of Example 3 diluted with 5% dextrose-0.45% saline or 0.9% saline; 250 ml/hr vehicle, 6 ml/hr drug solution, 12 hours
Procedure: The organic-aqueous solutions of Example 3 are further diluted with two standard sterile intravenous solutions: a 5% dextrose-0.45% saline solution and a 0.9% saline solution. The aqueous delivery vehicles were delivered at a rate of 250 ml/hr. The concentrated drug solutions (approx. 10 mg/ml) were introduced through a side arm tubing located several inches above the injection point for 12 hours at the rate of 6 ml/hr. measured by a calibrated infusion pump. […] At this rate, the effective dosage concentration per unit volume of the final organic-aqueous solution was approximately 1 mg/ml. The final diluted organic-aqueous solutions were filtered using Wattman filter paper.

[2] = Degradation kinetics of ara-AC in aqueous and mixed organic-aqueous solvent systems at 25° C. (reverse phase HPLC)
physchem = format: physicochemical
Procedure: (§1) Two neat, anhydrous solutions of ara-AC dissolved in DMSO and DMA, respectively, were prepared. […] Ara-AC has a solubility of approximately 20 mg/ml in water. The effective dose for ara-AC is 700 mg. […] At higher temperatures (e.g., 50°-60° C.), the ara-AC has proven stable for at least 3 weeks. Thus, the solutions of ara-AC in DMSO and DMA appear to be stable enough for commercial production, handling, and storage. By contrast, a solution of ara-AC in water would degrade 10% in 1.8 hours at 25° C.

[3] = format: physicochemical; details: for time for which ara-AC has proven stable: neat, higher temperatures (e.g., 50°-60° C.)
Procedure: as §1

[4] = Buffer (phosphate 0.01 M, pH 7.0, μ = 0.1 with NaCl), ara-AC 0.25 mg/ml, measured pH 7.0, 25° C.
[5] = Distilled H2O, ara-AC 0.25 mg/ml, measured pH 6.8, 25° C.

Which “precipitation or other undesirable effects” value [1] does the source give for `Nc1ncn([C@@H]2O[C@H](CO)[C@@H](O)[C@H]2O)c(=O)n1` [5-AC, 5-azacytidine] here?
The value was “No precipitation or other undesirable effects”.

Which t90 ([2]; 5% DMA in Buffer (phosphate 0.01 M, pH 6.8), ara-AC 5.0 mg/ml, apparent pH 7.0, 25° C.) does the source give for `Nc1ncn([C@@H]2O[C@H](CO)[C@@H](O)[C@@H]2O)c(=O)n1` [ara-AC, 5-azacytosine arabinoside] here?
The t90 was 1.9 h.

What about the t90 ([2]; 5% DMSO in Buffer (phosphate 0.01 M, pH 6.8), ara-AC 5.0 mg/ml, apparent pH 7.0, 25° C.) of the same compound?
Its t90 is 2.0 h.

What about the t90 ([2]; 10% DMA in Buffer (phosphate 0.01 M, pH 6.8), ara-AC 5.0 mg/ml, apparent pH 7.1, 25° C.) of the same compound?
The t90 was 2.2 h.

What about the t90 ([2]; 10% DMSO in Buffer, ara-AC 5.0 mg/ml, apparent pH 7.1, 25° C.) of the same compound?
The t90 was 2.5 h.

What about the t90 ([2]; 25% DMA in Buffer (phosphate 0.01 M, pH 6.8), ara-AC 5.0 mg/ml, apparent pH 7.4, 25° C.) of the same compound?
The t90 was 2.7 h.

And the t90 ([2]; 25% DMSO in Buffer, ara-AC 5.0 mg/ml, apparent pH 7.4, 25° C.)?
Its t90 is 2.8 h.

What about the t90 ([2]; 50% DMA in Buffer (phosphate 0.01 M, pH 6.8), ara-AC 5.0 mg/ml, apparent pH 8.1, 25° C.) of the same compound?
Its t90 is 4.5 h.

And the t90 ([2]; 55% DMA in Buffer (phosphate 0.01 M, pH 6.8), ara-AC 5.0 mg/ml, apparent pH 8.3, 25° C.)?
The t90 was 6.0 h.

And the t90 ([2]; 60% DMA in Buffer (phosphate 0.03 M, pH 6.0, μ = 0.3 M with NaCl), ara-AC 5.0 mg/ml, apparent pH 7.4, 25° C.)?
The t90 was 15.0 h.

And the t90 ([2]; 60% DMSO in Buffer (phosphate 0.03 M, pH 6.0, μ = 0.3 M with NaCl), ara-AC 5.0 mg/ml, apparent pH 7.8, 25° C.)?
Its t90 is 16.0 h.

What about the t90 ([2]; 65 wt. % DMA-35 wt. % water solution) of the same compound?
Its t90 is 16.0 h.

What about the t90 ([2]; 70% DMSO in H2O, ara-AC 5.0 mg/ml, apparent pH 8.0, 25° C.) of the same compound?
The t90 was 28.0 h.

And the t90 ([2]; 70 wt % DMSO-30 wt. % water solution)?
The t90 was 28.0 h.

And the “Kobs (observed degradation rate constant)” value [2, 4]?
Its value is 1.55 × 10^-2 hr.^-1.

And the t90 [2, 4]?
The t90 was 1.7 h.

And the “Kobs (observed degradation rate constant)” value [2, 5]?
The value was 1.34 × 10^-2 hr.^-1.

What about the t90 [2, 5] of the same compound?
The t90 was 1.8 h.

And the “t90 (10% decomposition in water)” value ([2]; water, 25° C.)?
The value was 1.8 h.

What about the “precipitation or other undesirable effects” value [1] of the same compound?
Its value is “No precipitation or other undesirable effects”.

What about the solubility (physchem; dma, organic solvent or mixture) of the same compound?
The solubility was 170 mg/mL (≈ 696 mM).

What about the solubility (physchem; dmso, organic solvent or mixture) of the same compound?
Its solubility is 370 mg/mL (≈ 1520 mM).

And the solubility (physchem; water)?
The solubility was ~20 mg/mL (≈ 81.9 mM).

And the “degradation during 5 months” value [3]?
Its value is “no observable degradation”.

What about the “time for which ara-AC has proven stable” value ([3]; anhydrous DMA solution) of the same compound?
Its value is “at least 3 weeks”.

And the “time for which ara-AC has proven stable” value ([3]; anhydrous DMSO solution)?
The value was “at least 3 weeks”.

From patent US4684630A, “Method of parenterally delivering drugs and related compositions” (priority 1985, dated 1987)
